In patent US20020095695A1, “Tillering promoter for plant and method for tillering promotion of plant” (AJINOMOTO CO., INC., priority 2000, published 2002):

Experiments:
Type in all cases: in vivo
[1] = test system: grass (a European grass: bent grass); assay: Effects of proline, glutamine, arginine and urea on hydroponic cultivation of grass; conditions: for Average leaf length / Average root length / Number of leaves per one root / Number of tillering per one root / Total weight of living plants per five roots / number of leaves and total weight of the living plant, in words: 40th day; for Average leaf length / Average root length / Number of leaves per one root / Number of tillering per one root / Total weight of living plants per five roots: 5 roots per group, proline 20 ppm, others at the same nitrogen amount; for number of leaves and total weight of the living plant, in words: five average stocks per group
Procedure: Seedlings of grass (a European grass: bent grass) were raised and divided into five groups of A to E, and hydroponic cultivation was carried out (Table 2 shown below). Group A was the control. Concerning Group B, proline was applied onto leaf surfaces once a week in an amount of 20 ppm.
(§1) Furthermore, five average stocks which had not been withered were sampled from each group and examined.

[2] = test system: lawn grass (a European grass; bent grass); assay: Effect of proline on hydroponic cultivation of lawn grass (1); conditions: for Average leaf length / Average root length / Number of leaves per one root / Number of tillering per one root / Total weight of living plants per five roots: 5 roots per group, inosine 2 ppm in hydroponic medium, proline 20 ppm onto leaf surfaces once a week; for tillering promotion (observation): confirmation on the 40th day, inosine 2 ppm in medium, proline 20 ppm foliar once a week
Procedure: Seedlings of grass (a European grass; bent grass) were raised and divided into four groups of A to D, and hydroponic cultivation was carried out (Table 1 shown below). Concerning Groups B and D, inosine was added to each hydroponic medium in such amount that the concentration became 2 ppm. Concerning Groups C and D, proline was applied onto leaf surfaces once a week in an amount of 20 ppm. Group A was the control. […] Furthermore, five average stocks which had not been withered were sampled from each group and examined.

[3] = test system: grass (a European grass: bent grass); assay: Effect of proline on hydroponic cultivation of grass (2), proline concentration changed stepwise; conditions: 40th day
Procedure: Seedlings of grass (a European grass: bent grass) were raised and divided into six groups of A to F, and hydroponic cultivation was carried out (Table 3 shown below). At that time, inosine was added to the hydroponic media for all the groups in such amount that the concentration became 2 ppm in each hydroponic medium. Group A was the control. In the groups of B to F, proline was applied onto leaf surfaces once a week with the concentration being changed stepwise.
as §1

[4] = group B, 2 ppm, inosine 2 ppm in hydroponic medium of all groups, foliar once a week
[5] = 0.2% proline foliar once a week, inosine 2 ppm in hydroponic medium
[6] = 2.0% proline foliar once a week, inosine 2 ppm in hydroponic medium
[7] = 20 ppm proline foliar once a week, inosine 2 ppm in hydroponic medium
[8] = 200 ppm proline foliar once a week, inosine 2 ppm in hydroponic medium

SMILES: N=C(N)NCCC[C@H](N)C(=O)O [Arginine, arginine]
- Average leaf length ([1]; foliar once a week): 18 cm
- Average root length ([1]; foliar once a week): 2 cm
- Number of leaves per one root ([1]; foliar once a week): 9
- Number of tillering per one root ([1]; foliar once a week): 3
- Total weight of living plants per five roots ([1]; foliar once a week): 0.51 g
- number of leaves and total weight of the living plant, in words [1]: good results

SMILES: NC(=O)CC[C@H](N)C(=O)O [Glutamine, glutamine]
- Average leaf length ([1]; foliar once a week): 18 cm
- Average root length ([1]; foliar once a week): 2 cm
- Number of leaves per one root ([1]; foliar once a week): 11
- Number of tillering per one root ([1]; foliar once a week): 3
- Total weight of living plants per five roots ([1]; foliar once a week): 0.66 g
- number of leaves and total weight of the living plant, in words [1]: good results

SMILES: OC[C@H]1O[C@@H](n2cnc3c(O)ncnc32)[C@H](O)[C@@H]1O [Inosine, inosine]
- Average leaf length ([2]; 40th day): 20 cm
- Average root length ([2]; 40th day): 2 cm
- Number of leaves per one root ([2]; 40th day): 7
- Number of tillering per one root ([2]; 40th day): 2
- Total weight of living plants per five roots ([2]; 40th day): 0.40 g
- tillering promotion (observation) [2]: no tillering promotion was observed
- Average leaf length [3, 4]: 24 cm
- Average root length [3, 4]: 4 cm
- Number of leaves per one root [3, 4]: 14
- Number of tillering per one root [3, 4]: 3
- Total weight of living plants per five roots [3, 4]: 1.04 g

SMILES: O=C(O)[C@@H]1CCCN1 [Proline, proline]
- Average leaf length ([2]; 40th day): 22 cm
- Average root length ([2]; 40th day): 1 cm
- Number of leaves per one root ([2]; 40th day): 16
- Number of tillering per one root ([2]; 40th day): 5
- Total weight of living plants per five roots ([2]; 40th day): 0.53 g
- growth (root length, leaf length and number, total weight of the living plant, tillering number), in words ([2]; 40th day, five average stocks per group): good growth
- tillering promotion (observation) [2]: tillering promotion was clearly observed
- Average leaf length [3, 5]: 23 cm
- Average root length [3, 5]: 5 cm
- Number of leaves per one root [3, 5]: 14
- Number of tillering per one root [3, 5]: 3
- Total weight of living plants per five roots [3, 5]: 0.90 g
- Average leaf length [3, 6]: 19 cm
- Average root length [3, 6]: 3 cm
- Number of leaves per one root [3, 6]: 11
- Number of tillering per one root [3, 6]: 3
- Total weight of living plants per five roots [3, 6]: 0.40 g
- Average leaf length [3, 7]: 24 cm
- Average root length [3, 7]: 4 cm
- Number of leaves per one root [3, 7]: 15
- Number of tillering per one root [3, 7]: 4
- Total weight of living plants per five roots [3, 7]: 0.95 g
- Average leaf length [3, 8]: 24 cm
- Average root length [3, 8]: 5 cm
- Number of leaves per one root [3, 8]: 24
- Number of tillering per one root [3, 8]: 4
- Total weight of living plants per five roots [3, 8]: 1.01 g
- inhibition of the growth or withering (observation) ([3]; Group F (2.0% proline foliar once a week), inosine 2 ppm in medium): inhibition of the growth or withering was observed
- number of leaves and total weight of the living plant, in words ([3]; proline at a concentration of 2 ppm to 0.2%, inosine 2 ppm in medium): good results
- Average leaf length ([1]; foliar once a week): 14 cm
- Average root length ([1]; foliar once a week): 2 cm
- Number of leaves per one root ([1]; foliar once a week): 17
- Number of tillering per one root ([1]; foliar once a week): 5
- Total weight of living plants per five roots ([1]; foliar once a week): 0.60 g
- number of leaves and total weight of the living plant, in words [1]: good results

SMILES: NC(N)=O [Urea, urea, reference compound]
- Average leaf length ([1]; foliar once a week): 15 cm
- Average root length ([1]; foliar once a week): 2 cm
- Number of leaves per one root ([1]; foliar once a week): 6
- Number of tillering per one root ([1]; foliar once a week): 1
- Total weight of living plants per five roots ([1]; foliar once a week): 0.34 g
- tillering promotion (observation) ([1]; confirmation on the 40th day, foliar once a week, nitrogen amount equal to 20 ppm proline): no tillering promotion was observed
